Measurements reported in US11548870B2, “Compounds useful as inhibitors of helios protein” (Bristol-Myers Squibb Company, priority 2019, dated 2023).
Like-named read-outs stand apart in the source and are kept apart here.

How the values were obtained:
Helios = biological target: T1, Helios (Homo sapiens, UniProt Q96SW2+Q9UKS7); assay: Helios Cellular Degradation Assay (flow cytometry, Helios-PE antibody staining, 72 h); format: cell-based; settings: for Dmax: Jurkat, read-out: Helios Dmax
T1 construct: fluorescently labelled antibodies against Helios and Ikaros; endogenous in cells; host or cells: Jurkat cells
T1 sequence (Q9UKS7 whole entry): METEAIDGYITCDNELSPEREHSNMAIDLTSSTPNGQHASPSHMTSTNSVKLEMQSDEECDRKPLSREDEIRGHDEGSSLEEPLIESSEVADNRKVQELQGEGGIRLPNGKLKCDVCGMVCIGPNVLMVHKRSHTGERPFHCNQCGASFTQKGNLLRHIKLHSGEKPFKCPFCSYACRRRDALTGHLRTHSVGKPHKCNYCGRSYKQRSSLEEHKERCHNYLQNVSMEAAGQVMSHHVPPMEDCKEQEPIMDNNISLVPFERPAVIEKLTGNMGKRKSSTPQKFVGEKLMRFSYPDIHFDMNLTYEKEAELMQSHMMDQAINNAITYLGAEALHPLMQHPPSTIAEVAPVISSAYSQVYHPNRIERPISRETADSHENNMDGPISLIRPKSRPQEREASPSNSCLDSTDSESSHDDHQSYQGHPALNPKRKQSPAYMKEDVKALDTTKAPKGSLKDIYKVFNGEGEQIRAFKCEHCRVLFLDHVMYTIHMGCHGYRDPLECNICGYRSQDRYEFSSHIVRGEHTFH
T1 sequence (Q96SW2 whole entry): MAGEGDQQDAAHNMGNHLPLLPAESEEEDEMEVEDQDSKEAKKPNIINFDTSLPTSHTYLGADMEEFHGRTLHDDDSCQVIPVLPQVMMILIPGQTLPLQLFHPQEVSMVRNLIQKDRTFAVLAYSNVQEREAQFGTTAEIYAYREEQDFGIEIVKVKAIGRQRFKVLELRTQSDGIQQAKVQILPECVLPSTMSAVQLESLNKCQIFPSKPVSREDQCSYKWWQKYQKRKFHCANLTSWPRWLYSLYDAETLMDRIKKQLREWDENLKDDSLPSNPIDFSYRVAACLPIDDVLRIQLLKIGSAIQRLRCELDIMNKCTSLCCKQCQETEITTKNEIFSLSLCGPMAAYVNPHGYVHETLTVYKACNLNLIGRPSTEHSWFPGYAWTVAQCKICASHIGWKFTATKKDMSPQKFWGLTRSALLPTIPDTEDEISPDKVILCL
T1 sequence (Q16531 whole entry partner): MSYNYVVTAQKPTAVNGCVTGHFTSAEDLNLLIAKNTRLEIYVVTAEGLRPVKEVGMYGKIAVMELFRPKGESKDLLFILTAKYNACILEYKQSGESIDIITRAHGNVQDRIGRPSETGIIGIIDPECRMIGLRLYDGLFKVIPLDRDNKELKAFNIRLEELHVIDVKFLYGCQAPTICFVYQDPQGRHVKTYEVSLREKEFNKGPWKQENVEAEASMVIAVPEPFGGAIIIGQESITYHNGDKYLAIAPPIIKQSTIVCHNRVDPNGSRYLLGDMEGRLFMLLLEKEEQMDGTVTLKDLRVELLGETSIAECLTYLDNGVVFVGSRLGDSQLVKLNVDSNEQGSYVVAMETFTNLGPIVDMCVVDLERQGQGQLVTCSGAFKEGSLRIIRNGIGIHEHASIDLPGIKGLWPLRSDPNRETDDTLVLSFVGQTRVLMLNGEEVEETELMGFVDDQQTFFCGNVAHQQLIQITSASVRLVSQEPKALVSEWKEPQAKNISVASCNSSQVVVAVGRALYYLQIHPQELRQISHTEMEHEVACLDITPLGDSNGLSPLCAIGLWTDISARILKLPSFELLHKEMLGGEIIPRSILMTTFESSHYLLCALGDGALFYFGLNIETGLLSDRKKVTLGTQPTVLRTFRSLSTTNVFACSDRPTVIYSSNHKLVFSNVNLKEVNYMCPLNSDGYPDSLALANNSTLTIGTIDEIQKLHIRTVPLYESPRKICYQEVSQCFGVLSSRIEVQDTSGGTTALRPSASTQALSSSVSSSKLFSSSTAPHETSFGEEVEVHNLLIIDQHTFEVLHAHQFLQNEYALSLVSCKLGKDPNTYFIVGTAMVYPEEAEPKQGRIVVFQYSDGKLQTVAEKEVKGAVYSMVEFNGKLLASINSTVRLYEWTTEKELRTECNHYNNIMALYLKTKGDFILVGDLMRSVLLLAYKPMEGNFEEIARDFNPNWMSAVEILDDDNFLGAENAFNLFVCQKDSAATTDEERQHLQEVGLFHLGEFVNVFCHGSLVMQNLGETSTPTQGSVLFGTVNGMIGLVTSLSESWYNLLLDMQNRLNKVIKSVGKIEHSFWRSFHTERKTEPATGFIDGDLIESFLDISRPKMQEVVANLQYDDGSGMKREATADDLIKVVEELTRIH
Summary of the method: (§1)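 Jurkat cells (80,000/well, RPMI+10% FBS) were exposed to compound for 72 h at 37 °C, then fixed, permeabilized and co-stained for 1 h with Ikaros-Alexa488 and Helios-PE antibodies. Intracellular protein levels were read by flow cytometry.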

Ikaros = biological target: T2, Ikaros (Homo sapiens, UniProt Q13422); assay: Helios Cellular Degradation Assay, Ikaros readout (flow cytometry, Ikaros-Alexa488 antibody staining, 72 h); format: cell-based; settings: for Dmax: Jurkat, read-out: Ikaros Dmax
T2 construct: fluorescently labelled antibodies against Helios and Ikaros; endogenous in cells; host or cells: Jurkat cells
T2 sequence (Q96SW2 whole entry partner): as the sequence (Q96SW2 whole entry) above
T2 sequence (Q16531 whole entry partner): as the sequence (Q16531 whole entry partner) above
T2 sequence (Q13422 whole entry): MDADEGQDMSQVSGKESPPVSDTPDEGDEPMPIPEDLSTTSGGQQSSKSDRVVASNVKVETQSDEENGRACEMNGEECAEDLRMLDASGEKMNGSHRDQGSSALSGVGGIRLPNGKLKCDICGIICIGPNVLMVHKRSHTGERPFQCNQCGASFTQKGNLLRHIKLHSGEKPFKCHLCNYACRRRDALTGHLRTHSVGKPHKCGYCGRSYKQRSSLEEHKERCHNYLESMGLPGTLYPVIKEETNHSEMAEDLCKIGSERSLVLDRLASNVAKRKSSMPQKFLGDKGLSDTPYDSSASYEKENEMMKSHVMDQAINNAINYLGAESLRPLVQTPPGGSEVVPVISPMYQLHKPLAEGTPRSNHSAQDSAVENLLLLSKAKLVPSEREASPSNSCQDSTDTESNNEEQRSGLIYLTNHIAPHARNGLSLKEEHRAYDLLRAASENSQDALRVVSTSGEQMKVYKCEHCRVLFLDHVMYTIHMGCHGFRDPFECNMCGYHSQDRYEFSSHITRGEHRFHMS
Summary of the method: as §1

[1] = Jurkat cells, 72 h incubation, flow cytometry

| DC50 (Helios; [1]) [nM] | Dmax (Helios; [1]) [%] | DC50 (Ikaros; [1]) [µM] | Dmax (Ikaros; [1]) [%] | Helios Dmax (Helios; [1]) [%] | Ikaros Dmax (Ikaros; [1]) [%] | Compound | Dmax (Helios) [%] | Dmax (Ikaros) [%] |
| --- | --- | --- | --- | --- | --- | --- | --- | --- |
| > 10000 | 20 | > 10 | 7 | – | – | CC1(C)CCCN(Cc2ccnc(-c3ccc4c(c3)CN(C3CCC(=O)NC3=O)C4=O)c2)C1 (stereo not drawn) [Example 85, 3-(5-(4-((3,3-dimethylpiperidin-1-yl)methyl)pyridin-2-yl)-1-oxoisoindolin-2-yl)piperidine-2,6-dione] | – | – |
| 19 | 91 | > 10 | 20 | – | – | O=C1CCC(N2Cc3cc(-c4cc(CNC5CCCC5)ccn4)ccc3C2=O)C(=O)N1 (stereo not drawn) [Example 86, 3-(5-(4-((cyclopentylamino)methyl)pyridin-2-yl)-1-oxoisoindolin-2-yl)piperidine-2,6-dione] | – | – |
| 29 | 100 | > 10 | 12 | – | – | O=C1CCC(N2Cc3cc(-c4cc(CNC5CCCCC5)ccn4)ccc3C2=O)C(=O)N1 (stereo not drawn) [Example 87, 3-(5-(4-((cyclohexylamino)methyl)pyridin-2-yl)-1-oxoisoindolin-2-yl) piperidine-2,6-dione] | – | – |
| 72 | 102 | > 10 | 27 | – | – | O=C1CCC(N2Cc3cc(-c4cc(CNCCN5CCOCC5)ccn4)ccc3C2=O)C(=O)N1 (stereo not drawn) [Example 88, 3-(5-(4-(((2-morpholinoethyl)amino)methyl)pyridin-2-yl)-1-oxoisoindolin-2-yl)piperidine-2,6-dione] | – | – |
| 213 | 61 | > 10 | 17 | – | – | O=C1CCC(N2Cc3cc(-c4cc(CNCC(c5ccccc5)c5ccccc5)ccn4)ccc3C2=O)C(=O)N1 (stereo not drawn) [Example 90, 3-(5-(4-(((2,2-diphenylethyl)amino)methyl)pyridin-2-yl)-1-oxoisoindolin-2-yl)piperidine-2,6-dione] | – | – |
| 3530 | 60 | > 10 | 4 | – | – | CC(=O)NCCNCc1ccnc(-c2ccc3c(c2)CN(C2CCC(=O)NC2=O)C3=O)c1 (stereo not drawn) [Example 91, N-(2-(((2-(2-(2,6-dioxopiperidin-3-yl)-1-oxoisoindolin-5-yl)pyridin-4-yl)methyl)amino)ethyl)acetamide] | – | – |
| 209 | 92 | > 10 | 11 | – | – | O=C1CCC(N2Cc3cc(-c4cc(CNCCO)ccn4)ccc3C2=O)C(=O)N1 (stereo not drawn) [Example 92, 3-(5-(4-(((2-hydroxyethyl)amino)methyl)pyridin-2-yl)-1-oxoisoindolin-2-yl) piperidine-2,6-dione] | – | – |
| 9 | 103 | > 10 | 23 | – | – | O=C1CCC(N2Cc3cc(-c4cc(CNCCc5ccccc5Cl)ccn4)ccc3C2=O)C(=O)N1 (stereo not drawn) [Example 93, 3-(5-(4-(((2-chlorophenethyl)amino)methyl)pyridin-2-yl)-1-oxoisoindolin-2-yl)piperidine-2,6-dione] | – | – |
| 35 | 74 | > 10 | 11 | – | – | O=C1CCC(N2Cc3cc(-c4cc(CNCCc5ccc(Cl)cc5)ccn4)ccc3C2=O)C(=O)N1 (stereo not drawn) [Example 94, 3-(5-(4-(((4-chlorophenethyl)amino)methyl)pyridin-2-yl)-1-oxoisoindolin-2-yl)piperidine-2,6-dione] | – | – |
| 34 | 94 | > 10 | 17 | – | – | COc1ccc(CCNCc2ccnc(-c3ccc4c(c3)CN(C3CCC(=O)NC3=O)C4=O)c2)cc1 (stereo not drawn) [Example 95, 3-(5-(4-(((4-methoxyphenethyl)amino)methyl)pyridin-2-yl)-1-oxoisoindolin-2-yl)piperidine-2,6-dione] | – | – |
| 19 | 94 | > 10 | 25 | – | – | O=C1CCC(N2Cc3cc(-c4cc(CNCCc5ccc(O)cc5)ccn4)ccc3C2=O)C(=O)N1 (stereo not drawn) [Example 96, 3-(5-(4-(((4-hydroxyphenethyl)amino)methyl)pyridin-2-yl)-1-oxoisoindolin-2-yl) piperidine-2,6-dione] | – | – |
| 8 | 90 | > 10 | 11 | – | – | CC(C)CCNCc1ccnc(-c2ccc3c(c2)CN(C2CCC(=O)NC2=O)C3=O)c1 (stereo not drawn) [Example 97, 3-(5-(4-((isopentylamino)methyl)pyridin-2-yl)-1-oxoisoindolin-2-yl)piperidine-2,6-dione] | – | – |
| 6 | 91 | > 10 | 8 | – | – | O=C1CCC(N2Cc3cc(-c4cc(CNCCCc5ccccc5)ccn4)ccc3C2=O)C(=O)N1 (stereo not drawn) [Example 98, 3-(1-oxo-5-(4-(((3-phenylpropyl)amino)methyl)pyridin-2-yl)isoindolin-2-yl)piperidine-2,6-dione] | – | – |
| 419 | 65 | > 10 | 6 | – | – | N#CCNCc1ccnc(-c2ccc3c(c2)CN(C2CCC(=O)NC2=O)C3=O)c1 (stereo not drawn) [Example 99, 2-(((2-(2-(2,6-dioxopiperidin-3-yl)-1-oxoisoindolin-5-yl)pyridin-4-yl)methyl)amino)acetonitrile] | – | – |
| 6130 | – | > 10 | – | 55 | 6 | NC(=O)CNCc1ccnc(-c2ccc3c(c2)CN(C2CCC(=O)NC2=O)C3=O)c1 (stereo not drawn) [Example 100, 2-(((2-(2-(2,6-dioxopiperidin-3-yl)-1-oxoisoindolin-5-yl)pyridin-4-yl)methyl)amino) acetamide] | – | – |
| 59 | 89 | > 10 | 22 | – | – | O=C1CCC(N2Cc3cc(-c4cc(CNC5CCC(O)CC5)ccn4)ccc3C2=O)C(=O)N1 (stereo not drawn) [Example 101, 3-(5-(4-(((4-hydroxycyclohexyl)amino)methyl)pyridin-2-yl)-1-oxoisoindolin-2-yl)piperidine-2,6-dione] | – | – |
| 11 | 97 | > 10 | 10 | – | – | O=C1CCC(N2Cc3cc(-c4cc(CNCCc5cccc(Cl)c5)ccn4)ccc3C2=O)C(=O)N1 (stereo not drawn) [Example 102, 3-(5-(4-(((3-chlorophenethyl)amino)methyl)pyridin-2-yl)-1-oxoisoindolin-2-yl)piperidine-2,6-dione] | – | – |
| 36 | 95 | > 10 | 1 | – | – | O=C1CCC(N2Cc3cc(-c4cc(CNCCOc5ccccc5)ccn4)ccc3C2=O)C(=O)N1 (stereo not drawn) [Example 103, 3-(1-oxo-5-(4-(((2-phenoxyethyl)amino)methyl)pyridin-2-yl)isoindolin-2-yl)piperidine-2,6-dione] | – | – |
| > 10000 | 44 | > 10 | 1 | – | – | O=C1CCC(N2Cc3cc(-c4cc(CNC5CCN(Cc6ccccc6)C5)ccn4)ccc3C2=O)C(=O)N1 (stereo not drawn) [Example 104, 3-(5-(4-(((1-benzylpyrrolidin-3-yl)amino)methyl)pyridin-2-yl)-1-oxoisoindolin-2-yl) piperidine-2,6-dione] | – | – |
| 264 | 79 | > 10 | 5 | – | – | NC(=O)CCNCc1ccnc(-c2ccc3c(c2)CN(C2CCC(=O)NC2=O)C3=O)c1 (stereo not drawn) [Example 105, 3-(((2-(2-(2,6-dioxopiperidin-3-yl)-1-oxoisoindolin-5-yl)pyridin-4-yl)methyl)amino)propanamide] | – | – |
| 72 | 79 | > 10 | 12 | – | – | O=C1CCC(N2Cc3cc(-c4cc(CNCCc5nc6ccccc6s5)ccn4)ccc3C2=O)C(=O)N1 (stereo not drawn) [Example 106, 3-(5-(4-(((2-(benzo[d]thiazol-2-yl)ethyl)amino)methyl)pyridin-2-yl)-1-oxoisoindolin-2-yl)piperidine-2,6-dione] | – | – |
| 494 | 80 | > 10 | 15 | – | – | CN(C)C1CCC(NCc2ccnc(-c3ccc4c(c3)CN(C3CCC(=O)NC3=O)C4=O)c2)CC1 (stereo not drawn) [Example 107, 3-(5-(4-(((4-(dimethylamino)cyclohexyl)amino)methyl)pyridin-2-yl)-1-oxoisoindolin-2-yl) piperidine-2,6-dione] | – | – |
| 45 | 84 | > 10 | 15 | – | – | O=C1CCC(N2Cc3cc(-c4cc(CNC5CCC5)ccn4)ccc3C2=O)C(=O)N1 (stereo not drawn) [Example 108, 3-(5-(4-((cyclobutylamino)methyl)pyridin-2-yl)-1-oxoisoindolin-2-yl)piperidine-2,6-dione] | – | – |
| 48 | 75 | > 10 | 15 | – | – | O=C1CCC(N2Cc3cc(-c4cc(CNC5CC5)ccn4)ccc3C2=O)C(=O)N1 (stereo not drawn) [Example 109, 3-(5-(4-((cyclopropylamino)methyl)pyridin-2-yl)-1-oxoisoindolin-2-yl)piperidine-2,6-dione] | – | – |
| 48 | 71 | > 10 | 7 | – | – | O=C1CCC(N2Cc3cc(-c4cc(CNCc5csc(-c6ccccc6)n5)ccn4)ccc3C2=O)C(=O)N1 (stereo not drawn) [Example 110, 3-(1-oxo-5-(4-((((2-phenylthiazol-4-yl)methyl)amino)methyl)pyridin-2-yl)isoindolin-2-yl)piperidine-2,6-dione] | – | – |
| 137 | 75 | > 10 | 10 | – | – | O=C1CCC(N2Cc3cc(-c4cc(CN[C@@H]5C[C@H]5c5ccccc5)ccn4)ccc3C2=O)C(=O)N1 (stereo partly drawn) [Example 111, 3-(1-oxo-5-(4-((((1R,2S)-2-phenylcyclopropyl)amino)methyl)pyridin-2-yl)isoindolin-2-yl)piperidine-2,6-dione] | – | – |

| Compound | DC50 (Helios; [1]) [nM] | Dmax (Helios; [1]) [%] | DC50 (Ikaros; [1]) [µM] | Dmax (Ikaros; [1]) [%] | Helios Dmax (Helios; [1]) [%] | Ikaros Dmax (Ikaros; [1]) [%] | Dmax (Helios) [%] | Dmax (Ikaros) [%] |
| --- | --- | --- | --- | --- | --- | --- | --- | --- |
| CC(C)(C)NCc1ccnc(-c2ccc3c(c2)CN(C2CCC(=O)NC2=O)C3=O)c1 (stereo not drawn) [Example 89, 3-(5-(4-((tert-butylamino)methyl)pyridin-2-yl)-1-oxoisoindolin-2-yl)piperidine-2,6-dione] | 103 | – | > 10 | – | – | – | 71 | 8 |
